# Measured values taken from patent US20120129833A1, “CYCLIC KETOENOLS FOR THERAPY” (BAYER PHARMA AKTIENGESELLSCHAFT, priority 2010, published 2012).
# Key:
# [1] = molecular target: T1, recombinant human ACC1 (acetyl-CoA carboxylase 1) (Homo sapiens, UniProt Q13085); experiment: Human ACC1 enzyme assay (HTRF ADP detection); assay type: biochemical; conditions: 50 μM ATP, 20 μM acetyl-CoA, 15 min pre-incubation, 20 min at 22° C.; read-out: ACC 1 IC50;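 further: ADP by-product quantified by competitive HTRF immunoassay with europium cryptate anti-ADP antibody and d2-labelled ADP, read after 1 h binding at 22 °C, enzyme near 2.5 ng/µl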
# T1 construct: NM_198834, amino acids 39—end; FLAG (C); made in house; host or cells: baculovirus-transfected insect cells (Hi5)
# Protocol: The basic principle of the assay is the measurement of adenosine diphosphate (ADP), which is formed as a by-product, by means of an HTRF®-based competitive immunoassay (HTRF=Homogeneous Time Resolved Fluorescence).
# The amount of complex of d2-labelled ADP and europium cryptate-labelled anti-ADP antibody was then determined by measuring the resonance energy transfer of europium cryptate to d2.
# [2] = molecular target: T2, ACC2 (acetyl-CoA carboxylase 2) (Homo sapiens, UniProt O00763); experiment: Human ACC2 enzyme assay (HTRF ADP detection); assay type: biochemical; conditions: 20 μM acetyl-CoA, 15 min pre-incubation, 20 min at 22° C.; read-out: ACC 2 IC50
# T2 construct: catalogue no; 50201, amino acids 39—end, expressed in baculovirus-transfected Sf9 insect cells; His (C); purchased BPS Bioscience (San Diego, Calif.) 50201; host or cells: baculovirus-transfected Sf9 insect cells
# T2 sequence (O00763 39-2458 limits assumed): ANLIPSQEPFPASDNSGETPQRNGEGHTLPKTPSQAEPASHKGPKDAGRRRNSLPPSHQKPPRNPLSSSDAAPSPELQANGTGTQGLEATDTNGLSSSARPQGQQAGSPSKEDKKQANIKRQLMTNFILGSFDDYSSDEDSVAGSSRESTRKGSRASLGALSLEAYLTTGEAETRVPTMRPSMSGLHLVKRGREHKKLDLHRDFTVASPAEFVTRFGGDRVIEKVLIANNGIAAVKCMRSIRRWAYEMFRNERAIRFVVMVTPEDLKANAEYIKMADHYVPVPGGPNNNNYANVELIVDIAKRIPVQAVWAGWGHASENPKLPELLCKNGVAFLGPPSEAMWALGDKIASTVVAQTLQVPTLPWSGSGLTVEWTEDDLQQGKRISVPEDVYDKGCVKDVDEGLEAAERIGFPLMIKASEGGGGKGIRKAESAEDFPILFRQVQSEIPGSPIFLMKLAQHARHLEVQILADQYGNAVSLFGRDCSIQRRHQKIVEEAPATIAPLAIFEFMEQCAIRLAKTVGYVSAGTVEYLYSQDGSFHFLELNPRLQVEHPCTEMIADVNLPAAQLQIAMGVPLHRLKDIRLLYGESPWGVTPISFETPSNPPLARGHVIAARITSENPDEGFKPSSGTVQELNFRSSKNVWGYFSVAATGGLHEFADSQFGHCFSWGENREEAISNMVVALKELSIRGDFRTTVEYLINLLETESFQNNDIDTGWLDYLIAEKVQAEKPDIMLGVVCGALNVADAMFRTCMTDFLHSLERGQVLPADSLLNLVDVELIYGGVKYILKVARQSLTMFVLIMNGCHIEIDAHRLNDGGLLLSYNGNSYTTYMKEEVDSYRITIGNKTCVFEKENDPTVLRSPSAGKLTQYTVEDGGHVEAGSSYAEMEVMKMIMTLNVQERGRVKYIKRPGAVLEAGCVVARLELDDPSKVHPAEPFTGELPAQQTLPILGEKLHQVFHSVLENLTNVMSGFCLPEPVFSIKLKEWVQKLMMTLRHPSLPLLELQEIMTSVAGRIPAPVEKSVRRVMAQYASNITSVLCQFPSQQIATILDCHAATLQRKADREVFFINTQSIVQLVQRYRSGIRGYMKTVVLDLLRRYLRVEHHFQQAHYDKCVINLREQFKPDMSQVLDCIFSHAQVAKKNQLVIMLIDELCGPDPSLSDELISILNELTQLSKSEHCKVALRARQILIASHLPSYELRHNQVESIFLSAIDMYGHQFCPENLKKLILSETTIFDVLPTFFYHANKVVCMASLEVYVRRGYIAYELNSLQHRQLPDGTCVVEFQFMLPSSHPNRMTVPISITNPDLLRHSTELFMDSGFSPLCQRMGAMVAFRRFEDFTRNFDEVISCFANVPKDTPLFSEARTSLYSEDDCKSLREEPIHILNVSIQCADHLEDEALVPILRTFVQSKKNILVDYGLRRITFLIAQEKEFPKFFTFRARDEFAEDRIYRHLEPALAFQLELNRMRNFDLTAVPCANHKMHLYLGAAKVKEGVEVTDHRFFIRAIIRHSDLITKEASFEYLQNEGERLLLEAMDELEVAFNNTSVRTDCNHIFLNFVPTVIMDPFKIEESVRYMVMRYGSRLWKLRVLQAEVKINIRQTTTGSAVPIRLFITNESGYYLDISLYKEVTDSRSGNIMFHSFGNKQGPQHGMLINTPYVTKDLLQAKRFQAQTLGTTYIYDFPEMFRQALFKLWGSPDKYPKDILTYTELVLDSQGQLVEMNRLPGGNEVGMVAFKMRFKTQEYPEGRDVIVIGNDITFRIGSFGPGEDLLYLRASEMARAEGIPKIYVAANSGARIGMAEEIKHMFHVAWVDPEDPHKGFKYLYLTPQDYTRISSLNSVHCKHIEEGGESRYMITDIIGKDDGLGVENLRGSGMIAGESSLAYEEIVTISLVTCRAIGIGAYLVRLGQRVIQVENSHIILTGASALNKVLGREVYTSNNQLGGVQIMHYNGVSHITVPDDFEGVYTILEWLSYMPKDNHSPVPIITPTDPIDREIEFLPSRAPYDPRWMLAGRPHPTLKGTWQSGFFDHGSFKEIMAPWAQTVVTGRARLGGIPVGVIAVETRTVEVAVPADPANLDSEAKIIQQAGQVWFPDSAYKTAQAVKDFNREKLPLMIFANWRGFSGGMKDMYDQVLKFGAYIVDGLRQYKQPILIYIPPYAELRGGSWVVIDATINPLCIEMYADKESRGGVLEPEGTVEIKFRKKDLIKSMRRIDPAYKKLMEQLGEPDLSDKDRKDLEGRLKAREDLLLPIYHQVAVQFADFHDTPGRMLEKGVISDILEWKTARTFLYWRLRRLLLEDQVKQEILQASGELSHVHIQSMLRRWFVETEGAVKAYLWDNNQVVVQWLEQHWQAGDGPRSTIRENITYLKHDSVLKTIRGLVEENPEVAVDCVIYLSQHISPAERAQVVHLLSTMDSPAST
SMILES,IC50 [1] [nM],IC50 [2] [µM]
"Cc1ccc(-c2ccc(Cl)cc2)cc1C1=C(O)C2(CCC3(CC2)OCCO3)OC1=O [Example 2-15, 11-(4′-chloro-4-methylbiphenyl-3-yl)-12-hydroxy-1,4,9-trioxadispiro[4.2.4.2]tetradec-11-en-10-one]",204,3.68
"COCC1CCC2(CC1)OC(=O)C(c1cc(-c3ccc(Cl)cc3)ccc1Cl)=C2O (centres unmarked) [Example 2-16, 3-(4,4′-dichlorobiphenyl-3-yl)-4-hydroxy-8-(methoxymethyl)-1-oxaspiro[4.5]dec-3-en-2-one]",180,3.34
"COCC1CCC2(CC1)OC(=O)C(c1c(C)ccc(-c3ccc(Cl)cc3)c1C)=C2O (centres unmarked) [Example 2-17, 3-(4′-chloro-2,4-dimethylbiphenyl-3-yl)-4-hydroxy-8-(methoxymethyl)-1-oxaspiro[4.5]dec-3-en-2-one]",158,0.652
"COCCC1CCCC2(C1)OC(=O)C(c1cc(-c3ccc(Cl)cc3)ccc1C)=C2O (centres unmarked) [Example 2-18, 3-(4′-chloro-4-methylbiphenyl-3-yl)-4-hydroxy-7-(2-methoxyethyl)-1-oxaspiro[4.5]dec-3-en-2-one]",479,3.41
"COCCC1CCCC2(C1)OC(=O)C(c1cc(-c3ccc(Cl)cc3)ccc1Cl)=C2O (centres unmarked) [Example 2-19, 3-(4,4′-dichlorobiphenyl-3-yl)-4-hydroxy-7-(2-methoxyethyl)-1-oxaspiro[4.5]dec-3-en-2-one]",530,10
"COCC1CCC2(CC1)OC(=O)C(c1cc(-c3ccc(Cl)cc3)ccc1C)=C2O (centres unmarked) [Example 2-20, 3-(4′-chloro-4-methylbiphenyl-3-yl)-4-hydroxy-8-(methoxymethyl)-1-oxaspiro[4.5]dec-3-en-2-one]",137,1.93
"Cc1ccc(-c2ccc(F)cc2)cc1C1=C(O)C2(CCCCC2)OC1=O [Example 2-21, 3-(4′-fluoro-4-methylbiphenyl-3-yl)-4-hydroxy-1-oxaspiro[4.5]dec-3-en-2-one]",400,> 20
"Cc1ccc(-c2ccc(F)c(F)c2)cc1C1=C(O)C2(CCCC2)OC1=O [Example 2-22, 3-(3′,4′-difluoro-4-methylbiphenyl-3-yl)-4-hydroxy-1-oxaspiro[4.4]non-3-en-2-one]",824,> 20
"Cc1ccc(-c2ccc(F)c(Cl)c2)cc1C1=C(O)C2(CCCC2)OC1=O [Example 2-23, 3-(3′-chloro-4′-fluoro-4-methylbiphenyl-3-yl)-4-hydroxy-1-oxaspiro[4.4]non-3-en-2-one]",1370,> 20
"O=C1OC2(CCCC2)C(O)=C1c1cc(-c2cc(F)c(F)c(F)c2)ccc1Cl [Example 2-24, 3-(4-chloro-3′,4′,5′-trifluorobiphenyl-3-yl)-4-hydroxy-1-oxaspiro[4.4]non-3-en-2-one]",997,> 20
"O=C1OC2(CCCCC2)C(O)=C1c1cc(-c2ccc(F)c(F)c2)ccc1Cl [Example 2-25, 3-(4-chloro-3′,4′-difluorobiphenyl-3-yl)-4-hydroxy-1-oxaspiro[4.5]dec-3-en-2-one]",442,> 20
"Cc1ccc(-c2ccc(Cl)cc2)c(C)c1C1=C(O)[C@]2(CC[C@]3(CCCO3)CC2)OC1=O [Example 2-26, (5s,8r)-3-(4′-chloro-2,4-dimethylbiphenyl-3-yl)-4-hydroxy-1,9-dioxadispiro[4.2.4.2]tetradec-3-en-2-one]",260,4.8
"O=C1OC2(CCC3(CCCO3)CC2)C(O)=C1c1cc(-c2ccc(Cl)cc2)ccc1Cl (centres unmarked) [Example 2-27, 3-(4,4′-dichlorobiphenyl-3-yl)-4-hydroxy-1,9-dioxadispiro[4.2.4.2]tetradec-3-en-2-one]",822,4.15
"Cc1ccc(-c2ccc(F)cc2)cc1C1=C(O)[C@]2(CC[C@@]3(CCCO3)CC2)OC1=O [Example 2-28, (5r,8s)-3-(4′-fluoro-4-methylbiphenyl-3-yl)-4-hydroxy-1,9-dioxadispiro[4.2.4.2]tetradec-3-en-2-one]",140,2.5
"Cc1ccc(-c2ccc(Cl)cc2)cc1C1=C(O)C2(CCC3(CCCO3)CC2)OC1=O (centres unmarked) [Example 2-29, 3-(4′-chloro-4-methylbiphenyl-3-yl)-4-hydroxy-1,9-dioxadispiro[4.2.4.2]tetradec-3-en-2-one]",321,0.789
"Cc1cc(C)c(-c2ccc(Cl)cc2)cc1C1=C(O)[C@]2(CC[C@@]3(CCCO3)CC2)OC1=O [Example 2-30, (5r,8s)-3-(4′-chloro-4,6-dimethylbiphenyl-3-yl)-4-hydroxy-1,9-dioxadispiro[4.2.4.2]tetradec-3-en-2-one]",281,0.032
"Cc1cc(C)c(-c2ccc(Cl)cc2)c(C)c1C1=C(O)[C@]2(CC[C@@]3(CCCO3)CC2)OC1=O [Example 2-31, (5r,8s)-3-(4′-chloro-2,4,6-trimethylbiphenyl-3-yl)-4-hydroxy-1,9-dioxadispiro[4.2.4.2]tetradec-3-en-2-one]",880,0.048
"Cc1ccc(-c2ccc(Cl)cc2)c(C)c1C1=C(O)C2(CCC(OCC(F)(F)F)CC2)OC1=O (centres unmarked) [Example 2-32, 3-(4′-chloro-2,4-dimethylbiphenyl-3-yl)-4-hydroxy-8-(2,2,2-trifluoroethoxy)-1-oxaspiro[4.5]dec-3-en-2-one]",450,1.6
"Cc1ccc(-c2ccc(Cl)cc2)cc1C1=C(O)C2(CCC(OCC(F)(F)F)CC2)OC1=O (centres unmarked) [Example 2-33, 3-(4′-chloro-4-methylbiphenyl-3-yl)-4-hydroxy-8-(2,2,2-trifluoroethoxy)-1-oxaspiro[4.5]dec-3-en-2-one]",229,3.59
"COC1CCC2(CC1)OC(=O)C(c1c(C)ccc(-c3ccc(Cl)cc3)c1C)=C2O (centres unmarked) [Example 2-34, 3-(4′-chloro-2,4-dimethylbiphenyl-3-yl)-4-hydroxy-8-methoxy-1-oxaspiro[4.5]dec-3-en-2-one]",286,1.27
"Cc1ccc(-c2ccc(Cl)cc2)cc1C1=C(O)C(C(C)(C)C)OC1=O (centres unmarked) [Example 2-35, 5-tert-butyl-3-(4′-chloro-4-methylbiphenyl-3-yl)-4-hydroxyfuran-2(5H)-one]",1020,> 20
"Cc1ccc(-c2ccc(Cl)cc2)cc1C1=C(O)C2(CCOCC2)OC1=O [Example 2-37, 3-(4′-chloro-4-methylbiphenyl-3-yl)-4-hydroxy-1,8-dioxaspiro[4.5]dec-3-en-2-one]",342,> 20
"Cc1ccc(-c2ccc(Cl)cc2)cc1C1=C(O)C2(CCCCCC2)OC1=O [Example 2-38, 3-(4′-chloro-4-methylbiphenyl-3-yl)-4-hydroxy-1-oxaspiro[4.6]undec-3-en-2-one]",416,3.78
"COC1CCC2(CC1)OC(=O)C(c1cc(-c3ccc(Cl)cc3)ccc1C)=C2O (centres unmarked) [Example 2-39, 3-(4′-chloro-4-methylbiphenyl-3-yl)-4-hydroxy-8-methoxy-1-oxaspiro[4.5]dec-3-en-2-one]",216,3.53
"Cc1ccc(-c2ccc(Cl)cc2)cc1C1=C(O)C(C)(C2CCCCC2)OC1=O (centres unmarked) [Example 2-40, 3-(4′-chloro-4-methylbiphenyl-3-yl)-5-cyclohexyl-4-hydroxy-5-methylfuran-2(5H)-one]",1220,> 20
